The values below come from EP1070068B2, “GRANULATIMIDE DERIVATIVES FOR USE IN CANCER TREATMENT” (THE UNIVERSITY OF BRITISH COLUMBIA, priority 1998, dated 1999).

Where two headings read alike, the source gives them in different places. Bounds are passed on as bounds.

One series concerns the target GSK3b (Homo sapiens, UniProt P49841). The experiment in a line: Protein kinase inhibition assay (γ-32P ATP, peptide substrate). It is filed as biochemical. Particulars: room temperature, 15 minutes. As to the method: (§1) The GSK3β peptide substrate used was […] (PO4H2)EDEE-amide. The ILK1 substrate is […]-amide.
(§2) 100% DMSO was used as a negative control.
(§3) Kinase reactions are performed at room temperature. The reaction mixture contains diluted test compound, the protein kinase, substrate and γ-^32P ATP. The mixture is incubated for 15 minutes, and the reaction mix spotted, and counted.

The next series deals with T1, ILK1 (Homo sapiens, UniProt Q13418).
T1 sequence (Q13418 1-452): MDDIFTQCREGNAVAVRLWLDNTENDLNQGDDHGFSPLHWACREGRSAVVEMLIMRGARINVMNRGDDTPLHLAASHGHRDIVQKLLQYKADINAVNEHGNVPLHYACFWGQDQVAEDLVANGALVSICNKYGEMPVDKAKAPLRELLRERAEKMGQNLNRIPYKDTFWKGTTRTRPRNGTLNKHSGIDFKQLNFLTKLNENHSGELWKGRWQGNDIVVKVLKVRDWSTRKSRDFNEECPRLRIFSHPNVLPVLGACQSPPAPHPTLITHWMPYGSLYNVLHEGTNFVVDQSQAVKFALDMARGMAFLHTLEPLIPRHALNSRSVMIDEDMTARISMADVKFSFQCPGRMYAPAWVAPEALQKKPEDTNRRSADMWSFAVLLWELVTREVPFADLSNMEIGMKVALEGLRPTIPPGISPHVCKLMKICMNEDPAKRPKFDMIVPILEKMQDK
Described as above. Format: biochemical. The note with it: room temperature, 15 minutes. Here is the method:
as §1, §2, §3

The target of another series is CDK1 (Homo sapiens, UniProt P06493). The experiment in a line: Protein kinase inhibition assay (γ-32P ATP). Format: biochemical. The note with it: room temperature, 15 minutes. Here is the method: as §2, §3
CDK1, sequence (P06493 whole entry, species assumed): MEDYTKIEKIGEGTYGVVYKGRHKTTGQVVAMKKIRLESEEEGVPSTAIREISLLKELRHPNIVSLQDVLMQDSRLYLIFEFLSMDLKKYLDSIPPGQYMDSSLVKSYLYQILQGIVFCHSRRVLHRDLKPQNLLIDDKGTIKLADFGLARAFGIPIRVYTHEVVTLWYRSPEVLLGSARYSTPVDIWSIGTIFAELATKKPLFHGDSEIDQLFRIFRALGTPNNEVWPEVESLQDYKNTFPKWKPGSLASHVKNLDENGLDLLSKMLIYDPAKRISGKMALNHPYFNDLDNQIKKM
CDK1, sequence (P14635 whole entry partner, species assumed): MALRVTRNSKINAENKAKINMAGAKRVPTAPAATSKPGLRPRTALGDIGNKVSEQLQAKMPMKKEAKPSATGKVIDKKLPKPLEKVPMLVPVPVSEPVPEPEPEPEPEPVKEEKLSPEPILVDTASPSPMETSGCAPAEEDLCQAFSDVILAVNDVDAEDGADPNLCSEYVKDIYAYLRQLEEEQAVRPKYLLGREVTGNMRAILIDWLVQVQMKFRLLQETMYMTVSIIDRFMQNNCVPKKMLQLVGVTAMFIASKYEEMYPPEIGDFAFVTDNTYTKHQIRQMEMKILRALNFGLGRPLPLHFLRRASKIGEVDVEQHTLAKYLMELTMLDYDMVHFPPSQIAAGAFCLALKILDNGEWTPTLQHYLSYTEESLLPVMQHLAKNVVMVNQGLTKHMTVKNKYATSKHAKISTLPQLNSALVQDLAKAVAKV
Series [1] in a line: Solubility in organic solvents. It is filed as physicochemical.
The test system of series [2] is MCF-7 mp53 cells. The experiment in a line: G2 checkpoint inhibition assay (TG-3 ELISA of mitotic cells after γ-irradiation, with nocodazole). It is filed as cell-based. Particulars: for IC50: Homo sapiens. Here is the method:
G2 Checkpoint Inhibitor Assay: The G2 checkpoint inhibitor assay described herein involves treating cells, e. g. cells associated with a hyperproliferative disorder, including cancer cells, with a DNA damaging agent under conditions whereby arrest of the cells at G2 will be induced. A sample to be tested for G2 checkpoint inhibition activity and an agent which arrests cells in mitosis are applied to the cells, following which it is determined whether the G2 checkpoint is overcome and the cells enter mitosis. Release of the cells from arrest at G2 or prevention of arrest at G2, such that the cells proceed to mitosis, is the indicator of G2 checkpoint inhibition activity.
MCF-7 mp53 cells (mutant for p53) were cultured as monolayers in DMEM supplemented with 10% fetal bovine serum, 2 mM L-glutamine, 50 units/ml penicillin, 50 µg/ml streptomycin, 1 mM sodium pyruvate, MEM non-essential amino acids, 1 µg/ml bovine insulin, 1 µg/ml hydrocortisone, 1 ng/ml human epidermal growth factor, and 1 ng/ml β-estradiol at 37°C in humidified 5% CO2. The cells were seeded at 10,000 cells per well of 96-well polystyrene tissue culture plates (Falcon) in 100 µl medium. The cells were allowed to grow for 24 hours and then were irradiated with 6.5 Gy using a ^60Co source (Gammacell 200™, Atomic Energy Commission of Canada) delivering γ-rays at a dose rate of 1.4 Gy/min.
Extracts from marine organisms at about 10µg/ml (from 1000-fold stocks in DMSO) and 100 ng/ml nocodazole (Sigma, from a 1000-fold stock in DMSO) were added 16 hours after irradiation and the cells were incubated for a further 8 hours.
After drug treatment, the cell culture medium was removed and the cells were lysed by adding 100 µl of ice-cold lysis buffer (1 mM EGTA pH 7.4, 0.2 mM PMSF) and pipeting up-and-down 10 times. The cell lysates were transferred to 96-well PolySorp™ plates (Nunc) and dried completely by blowing warm air at about 37°C with a hair dryer positioned about 3 feet above plates. […] This was removed and replaced with 100 µl antibody buffer containing 0.1-0.15 µg/ml TG-3 monoclonal antibody and horseradish peroxidase-labelled goat anti-mouse IgM (Southern Biotechnology Associates) at a dilution of 1/500.
After overnight incubation at 4°C, the antibody solution was removed and the wells were rinsed 3 times with 200 µl 10 mM Tris HCl pH 7.4, 0.02% Tween 20™.

The test system of series [3] is MCF-7 mp53 cells. Described as above. The note with it: concentration of 0.1-30 µM. It is filed as cell-based.
Another series in a line: in vitro. Particulars: human.
The test system of series [4] is MCF-7 mp53 cells.
In the next series the test system is MCF-7 cells. The experiment in a line: Cell survival, soluble tetrazolium salt assay with γ-irradiation, p53+ cells. It is filed as cell-based. Particulars: MCF-7 cells (Figure 1C).
Series [5] has as its system p53- A549 human lung adenocarcinoma cells. The note with it: cited from earlier work.
Another series deals with p53-MCF-7 cells. Particulars: cited from earlier work.
Setting [6] is: MCF7, Table 2, read-out: IC50 G2 checkpoint.
The mark [7] stands for this setting: MCF7, light or radiation study, MCF-7 mp53 cells irradiated with 6.5 Gy, read-out: half-maximal G2 checkpoint inhibition (IC50).

GSK3b, sequence (P49841 whole entry, species assumed): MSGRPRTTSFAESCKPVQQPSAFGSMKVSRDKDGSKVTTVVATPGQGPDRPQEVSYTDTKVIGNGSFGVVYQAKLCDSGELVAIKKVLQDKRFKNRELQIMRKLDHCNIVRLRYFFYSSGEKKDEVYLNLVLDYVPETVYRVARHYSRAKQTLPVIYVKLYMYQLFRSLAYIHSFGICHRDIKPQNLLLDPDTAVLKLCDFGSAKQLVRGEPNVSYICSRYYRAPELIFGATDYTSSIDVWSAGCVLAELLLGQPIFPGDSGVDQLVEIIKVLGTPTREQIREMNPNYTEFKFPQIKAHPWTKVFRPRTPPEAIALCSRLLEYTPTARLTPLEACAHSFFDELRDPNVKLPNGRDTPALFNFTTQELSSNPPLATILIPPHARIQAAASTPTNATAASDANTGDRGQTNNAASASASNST

As to `O=C1NC(=O)c2c1c1[nH]cnc1c1[nH]c3ccccc3c21` [Granulatimide], the IC50 at GSK3b is 2 µM; on ILK1, > 50 µM; at CDK1, 2 µM; in the series with MCF-7 mp53 cells [2] (MCF7, Figure 2, read-out: G2 checkpoint inhibitor IC50) it was 1.3 µM; with MCF-7 mp53 cells [2] (setting [6]), 1.3 µM. In addition, the solubility result is recorded as “soluble” in [1] (DMF or DMSO); “very insoluble” in series [1] (most common organic solvents including ethanol and methanol).
With `O=C1NC(=O)c2c1c1c3ccccc3[nH]c1c1cncn21` [compound 50], the IC50 turned out to be 0.1 µM at GSK3b; 15 µM on ILK1; 0.5 µM at CDK1; 1 µM in the series on MCF-7 mp53 cells [2] (setting [7]); 1 µM in the series with MCF-7 mp53 cells [2] (setting [6]).
For `O=C1NC(=O)C(c2c[nH]c3ccccc23)=C1c1cnc[nH]1` [Didemnimide A], the “G2 checkpoint inhibition activity” value in the series with MCF-7 mp53 cells [3] is “no activity”.
For the compound `O=C1NC(=O)c2c1c1c3ccccc3[nH]c1n1cncc21` [Isogranulatimide], the IC50 at GSK3b is 0.5 µM; against ILK1, > 50 µM; in the series on MCF-7 mp53 cells [2] (setting [7]), 1.8 ± 0.2 µM; in the series with MCF-7 mp53 cells [2] (setting [6]), 1.8 µM. The compound also showed an IC50 at 16 h in “in vitro” of 40 ± 4 µM. Besides, the “reduction of the IC50 for cytotoxicity when cells were irradiated” value with MCF-7 mp53 cells [4] is 5 fold. Further, the “synergy with γ-irradiation in killing p53- cells” value in the series with MCF-7 mp53 cells [4] (2, 4 or 6 Gy, 16 hours for isogranulatimide) was “acted synergistically”. Besides, the “synergy with irradiation in killing p53+ cells” value with MCF-7 cells was “does not kill p53+ cells synergistically”.
In the case of `O=C1NC(=O)c2c1c1c3ccccc3[nH]c1n1ccnc21` [compound 60], the IC50 against GSK3b was 5 µM; at ILK1, > 50 µM; against CDK1 it was 17 µM; with MCF-7 mp53 cells [2] (setting [7]) it was 2 µM; with MCF-7 mp53 cells [2] (setting [6]), 6 µM.
On the same counts, the results for `O=C1NC(=O)c2c1c1c3ccccc3[nH]c1c1nccn21` [compound 40] are 25 µM, > 50 µM, > 50 µM, > 100 µM and > 100 µM.
With `CC(=O)CCCCn1c(=O)c2c(ncn2C)n(C)c1=O` [Pentoxifylline], the “enhancement of radiation induced killing” value in series [5] is listed as 5 fold. For the same compound, the “enhancement of cisplatin induced killing” value with p53-MCF-7 cells was 30 fold.
For `Cn1c(=O)c2c(ncn2C)n(C)c1=O` [caffeine, reference compound], in the series with MCF-7 mp53 cells [2] (MCF7, comparison compound, read-out: IC50 for G2 checkpoint inhibition), the IC50 came out at 1000 µM. The “absorbance readings at 405 nm” value with MCF-7 mp53 cells [2] (positive control, 2 mM) is “about 1.0”.
